Laboratory results: patent US5480908A, “β3 -adrenergic agents benzodioxole dicarboxylates and their use in pharmaceutical compositions” (American Cyanamid Company, priority 1993, dated 1996)
Structures can show the parent of a compound that is named as a salt.

Columns and labels:
[1] = biological target: T1, β2 (Rattus norvegicus, UniProt P10608); assay: Lung Binding (β2): binding assay with membranes from rat lung; conditions: rat lung membranes, [^125 I]iodo-cyanopindolol, 1 hour
T1 construct: membranes from rat lung; from tissue; host or cells: rat lung membranes
Procedure: (§1) Selectivity of a compound is determined using the following procedures.
(§2) Binding assays for β1 -effect are carried out by the use of membranes from rat heart, and β2 -effect by the use of membranes from rat lung by the method described in Neve, et. al., J. Pharmacol. Exp. Ther., 1985, 235, 657-664 with the following exceptions:
(§3) 1. the incubation volume is 0.5 ml,
(§4) 2. the incubation time is 1 hour,
(§5) 3. the radioligand is [^125 I]iodo-cyanopindolol,
(§6) 4. (--) - isoproterenol (50 μM) is used to define […], and
(§7) 5. the filters are washed at 4° C.

[2] = test system: β2; assay: as above; conditions: printed β3; Table 1 indicates β2 (lung binding)
Procedure: as §1, §2, §3, §4, §5, §6, §7

[3] = biological target: T2, β1 -adrenergic receptor (Rattus norvegicus, UniProt P18090); assay: Heart Binding (β1): binding assay with membranes from rat heart; conditions: rat heart membranes, [^125 I]iodo-cyanopindolol, 1 hour
T2 construct: membranes from rat heart; from tissue; host or cells: rat heart membranes
Procedure: as §1, §2, §3, §4, §5, §6, §7

[4] = test system: β1 -adrenergic receptor; assay: as above; conditions: β3 lipolysis vs β1 heart binding
Procedure: as §1, §2, §3, §4, §5, §6, §7

[5] = biological target: T3, β3 -adrenergic receptor (Rattus norvegicus, UniProt P26255); assay: Lipolysis (β3-effect): stimulation of adipocyte lipolysis, glycerol release; format: cell-based; conditions: rat epididymal adipocytes, 30 minutes, 37° C.; concentration giving 50% of the maximum rate of lipolysis of that compound
T3 construct: Rat epididymal fat pads are excised and placed in 0.9% saline; from tissue; host or cells: rat epididymal fat pads, collagenase-isolated adipocytes
Procedure: as §1
The β3 -effect of the compounds is determined by their ability to stimulate adipocyte lipolysis. Rat epididymal fat pads are excised and placed in 0.9% saline. Four grams of tissue is transferred to a flask with 20 ml of aerated KrebsHenseleit bicarbonate (KHB) buffer containing 3% fatty acid-free bovine serum albumin to which 75 mg of crude bacterial collagenase (Worthington) has been added. The tissue is incubated for about 45 minutes at 37° C. with gentle shaking. The cells are then washed three times with two volumes of KHB buffer, filtered through two layers of gauze, and brought to a final volume of 80 ml with KHB buffer. One-ml-aliquots of the cell suspension is added to plastic test tubes containing the appropriate additions of vehicle or compound. The cells are gassed for 1 minute with 95% O2 -5% CO2, capped, and incubated at 37° C. with continuous shaking for a total of 30 minutes. The reaction is stopped by adding 0.1 ml of 30 % perchloric acid and 0.1 ml of chloroform. […] The amount of glycerol generated from the hydrolysis of endogenous triglycerides is determined in a coupled-enzyme spectrophotometric assay. […] The amount of NADH generated, which is proportional to the amount of glycerol, is determined by the increase in absorbance at 340 nm. […]

T2 sequence (P18090 whole entry): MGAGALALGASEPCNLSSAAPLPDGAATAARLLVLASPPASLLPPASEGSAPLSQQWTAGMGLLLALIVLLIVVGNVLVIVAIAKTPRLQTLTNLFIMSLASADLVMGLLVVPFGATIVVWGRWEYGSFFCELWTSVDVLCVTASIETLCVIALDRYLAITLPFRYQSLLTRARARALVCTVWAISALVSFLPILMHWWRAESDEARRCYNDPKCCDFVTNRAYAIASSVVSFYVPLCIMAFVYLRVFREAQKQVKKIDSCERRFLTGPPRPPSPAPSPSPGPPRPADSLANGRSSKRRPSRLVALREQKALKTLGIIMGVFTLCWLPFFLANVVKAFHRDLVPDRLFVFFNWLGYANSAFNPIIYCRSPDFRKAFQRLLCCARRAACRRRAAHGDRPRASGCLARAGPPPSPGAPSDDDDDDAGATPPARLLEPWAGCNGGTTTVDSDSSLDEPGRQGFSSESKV
T3 sequence (P26255 whole entry): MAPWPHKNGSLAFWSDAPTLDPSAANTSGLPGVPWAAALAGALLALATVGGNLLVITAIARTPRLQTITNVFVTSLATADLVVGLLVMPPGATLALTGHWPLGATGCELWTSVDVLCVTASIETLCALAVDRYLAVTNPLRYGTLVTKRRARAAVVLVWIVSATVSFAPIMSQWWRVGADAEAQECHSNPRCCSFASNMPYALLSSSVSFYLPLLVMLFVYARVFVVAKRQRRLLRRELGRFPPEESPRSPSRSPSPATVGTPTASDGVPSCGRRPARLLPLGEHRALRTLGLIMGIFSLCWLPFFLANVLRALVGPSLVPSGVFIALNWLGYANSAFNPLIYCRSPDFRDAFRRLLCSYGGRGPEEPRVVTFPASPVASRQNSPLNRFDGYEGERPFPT
T1 sequence (P10608 whole entry): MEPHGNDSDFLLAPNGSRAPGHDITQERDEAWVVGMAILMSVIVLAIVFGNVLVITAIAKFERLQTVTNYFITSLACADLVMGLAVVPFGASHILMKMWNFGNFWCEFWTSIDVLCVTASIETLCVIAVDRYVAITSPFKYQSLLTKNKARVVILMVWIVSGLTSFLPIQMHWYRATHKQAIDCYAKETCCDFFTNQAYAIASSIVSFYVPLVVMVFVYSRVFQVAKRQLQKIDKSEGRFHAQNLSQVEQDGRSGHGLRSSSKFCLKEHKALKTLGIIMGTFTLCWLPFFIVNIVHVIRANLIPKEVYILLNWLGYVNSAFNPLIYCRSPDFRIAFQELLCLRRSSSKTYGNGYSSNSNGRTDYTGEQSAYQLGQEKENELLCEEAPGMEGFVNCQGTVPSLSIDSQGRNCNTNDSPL

C[C@H](Cc1ccc2c(c1)OC(C(=O)O)(C(=O)O)O2)NCC(O)COc1cccc2ccccc12 (mixture of isomers) [Example 1, (R,R) and (S,R)-5-[2-[[2-Hydroxy-3-(1-naphthalenyloxy)propyllamino]propyl-1,3-benzodioxole-2,2-dicarboxylic acid, disodium salt]
IC50 [1]: 360 nM | selectivity when compared to the β3 -receptor [2]: not selective | IC50 [3]: 1520 nM | selectivity for the β3 -adrenergic receptor over the β1 -adrenergic receptor [4]: shows selectivity | EC50 [5]: 264 nM
